US7589104B2, “Tricyclic-bridged piperidinyline derivatives as §-opioid modulators” (Janssen Pharmaceutica NV, priority 2004, dated 2009)
Read-outs that look alike come from different tables or passages of the source.

Key:
mu opioid receptor = biological target: T1, mu opioid receptor (Rattus norvegicus, UniProt P33535); assay: Rat Brain Mu Opioid Receptor Binding Assay
T1 construct: Following incubation with the mu selective peptide ligand, ˜0.8 nM [^3H]DAMGO; from tissue; host or cells: forebrain of male Wistar rats (Charles River)
T1 sequence (P33535 whole entry): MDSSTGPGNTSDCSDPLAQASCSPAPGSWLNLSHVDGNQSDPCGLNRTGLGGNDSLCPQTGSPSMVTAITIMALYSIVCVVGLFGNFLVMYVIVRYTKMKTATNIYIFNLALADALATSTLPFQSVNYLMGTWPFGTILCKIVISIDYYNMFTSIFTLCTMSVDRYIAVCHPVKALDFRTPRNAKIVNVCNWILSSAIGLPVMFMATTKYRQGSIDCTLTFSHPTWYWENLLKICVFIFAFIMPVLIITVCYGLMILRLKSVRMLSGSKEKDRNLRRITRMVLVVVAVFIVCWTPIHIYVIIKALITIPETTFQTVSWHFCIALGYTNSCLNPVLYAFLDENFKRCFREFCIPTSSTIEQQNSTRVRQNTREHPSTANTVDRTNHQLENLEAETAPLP

delta opioid receptor = biological target: T2, delta opioid receptor (Rattus norvegicus, UniProt P33533); assay: Rat Brain Delta Opioid Receptor Binding Assay
T2 construct: from tissue; host or cells: forebrain of male Wistar rats (Charles River)
T2 sequence (P33533 whole entry): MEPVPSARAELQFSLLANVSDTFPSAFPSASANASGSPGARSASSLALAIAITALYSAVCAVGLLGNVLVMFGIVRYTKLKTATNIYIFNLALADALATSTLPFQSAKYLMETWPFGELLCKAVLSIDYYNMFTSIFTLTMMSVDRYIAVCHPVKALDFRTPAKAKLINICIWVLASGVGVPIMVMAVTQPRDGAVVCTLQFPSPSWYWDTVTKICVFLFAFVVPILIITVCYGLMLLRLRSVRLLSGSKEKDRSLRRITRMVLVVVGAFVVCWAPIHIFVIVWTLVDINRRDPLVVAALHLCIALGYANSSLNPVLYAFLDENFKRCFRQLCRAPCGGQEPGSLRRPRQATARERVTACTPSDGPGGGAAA

[1] = rat forebrain membranes, [3H]DAMGO, read-out: mu (Ki)
[2] = rat forebrain membranes, [3H]DPDPE or [3H]naltrindole, read-out: delta (Ki)

## CCN(CC)C(=O)c1ccc2c(c1)Oc1ccccc1C2C1CC2CCC(C1)N2 (centres unmarked) [Compound 9a, 9-(8-Aza-bicyclo[3.2.1]oct-3-yl)-9H-xanthene-3-carboxylic acid diethylamide]
Mu opioid receptor
  Ki: 6450 nM
Delta opioid receptor
  Ki: 140 nM

## Oc1cccc2c1Oc1cc(-c3cccnc3)ccc1C2C1CC2CCC(C1)N2 (centres unmarked) [Compound 8k, 9-(8-Aza-bicyclo[3.2.1]oct-3-yl)-6-pyridin-3-yl-9H-xanthen-4-ol]
Mu opioid receptor
  Ki: 27.2 nM
Delta opioid receptor
  Ki: 9.61 nM

## c1ccc2c(c1)Oc1cc(-c3ccoc3)ccc1C2C1CC2CCC(C1)N2 (centres unmarked) [Compound 5b, 3-(3-Furan-3-yl-9H-xanthen-9-yl)-8-aza-bicyclo[3.2.1]octane]
Mu opioid receptor
  Ki: 19700 nM
Delta opioid receptor
  Ki: 3450 nM

## c1ccc2c(c1)Oc1cc(-c3ccsc3)ccc1C2C1CC2CCC(C1)N2 (centres unmarked) [Compound 6b, 3-(3-Thiophen-3-yl-9H-xanthen-9-yl)-8-aza-bicyclo[3.2.1]octane]
Mu opioid receptor
  Ki: 83200 nM
Delta opioid receptor
  Ki: 5800 nM

## CCN(CC)C(=O)c1ccc2c(c1)Oc1ccccc1C2C1CC2CCC(C1)N2Cc1ccco1 (centres unmarked) [Compound 13a, 9-(8-Furan-2-ylmethyl-8-aza-bicyclo[3.2.1]oct-3-yl)-9H-xanthene-3-carboxylic acid diethylamide]
Mu opioid receptor
  Ki: 3020 nM
Delta opioid receptor
  Ki: 42 nM

## CC(=O)Nc1ccccc1-c1ccc2c(c1)Oc1ccccc1C2C1CC2CCC(C1)N2 (centres unmarked) [Compound 7b, N-{2-[9-(8-Aza-bicyclo[3.2.1]oct-3-yl)-9H-xanthen-3-yl]-phenyl}-acetamide]
Mu opioid receptor
  Ki: 6380 nM
Delta opioid receptor
  Ki: 426 nM

## CCN(CC)C(=O)c1ccc2c(c1)Oc1ccccc1C2C1CC2CCC(C1)N2CCc1ccccc1 (centres unmarked) [Compound 12a, 9-(8-Phenethyl-8-aza-bicyclo[3.2.1]oct-3-yl)-9H-xanthene-3-carboxylic acid diethylamide]
Mu opioid receptor
  Ki: 667 nM
Delta opioid receptor
  Ki: 200 nM

## COc1cccc2c1Oc1cc(Br)ccc1C2C1CC2CCC(C1)N2 (centres unmarked) [Compound 14k, 3-(3-Bromo-5-methoxy-9H-xanthen-9-yl)-8-aza-bicyclo[3.2.1]octane]
Mu opioid receptor
  Ki: 7380 nM
Delta opioid receptor
  Ki: 2880 nM

## CCN(CC)C(=O)c1ccc2c(c1)Oc1ccc(F)cc1C2C1CC2CCC(C1)N2 (centres unmarked) [Compound 7e, 9-(8-Aza-bicyclo[3.2.1]oct-3-yl)-7-fluoro-9H-xanthene-3-carboxylic acid diethylamide]
Mu opioid receptor
  Ki: 44000 nM
Delta opioid receptor
  Ki: 294 nM

## c1ccc2c(c1)Oc1cc(-c3ccncc3)ccc1C2C1CC2CCC(C1)N2 (centres unmarked) [Compound 20b, 3-(3-Pyridin-4-yl-9H-xanthen-9-yl)-8-aza-bicyclo[3.2.1]octane]
Mu opioid receptor
  Ki: 3490 nM
Delta opioid receptor
  Ki: 194 nM

## CCN(CC)C(=O)c1ccc2c(c1)Oc1c(Cl)cccc1C2C1CC2CCC(C1)N2 (centres unmarked) [Compound 6i, 9-(8-Aza-bicyclo[3.2.1]oct-3-yl)-5-chloro-9H-xanthene-3-carboxylic acid diethylamide]
Mu opioid receptor
  Ki: > 10000 nM
Delta opioid receptor
  Ki: 3350 nM

## c1ccc(CCN2C3CCC2CC(C2c4ccccc4Oc4cc(-c5cccnc5)ccc42)C3)cc1 (centres unmarked) [Compound 12b, 8-Phenethyl-3-(3-pyridin-3-yl-9H-xanthen-9-yl)-8-aza-bicyclo[3.2.1]octane]
Mu opioid receptor
  Ki: 293 nM
Delta opioid receptor
  Ki: 794 nM

## O=C(c1ccc2c(c1)Oc1ccccc1C2C1CC2CCC(C1)N2)N1CCCC1 (centres unmarked) [Compound 3g, [9-(8-Aza-bicyclo[3.2.1]oct-3-yl)-9H-xanthen-3-yl]-pyrrolidin-1-yl-methanone]
Mu opioid receptor
  Ki: 7600 nM
Delta opioid receptor
  Ki: 831 nM

## CCN(CC)C(=O)c1ccc2c(c1)Oc1ccc(Br)cc1C2C1CC2CCC(C1)N2 (centres unmarked) [Compound 7f, 9-(8-Aza-bicyclo[3.2.1]oct-3-yl)-7-bromo-9H-xanthene-3-carboxylic acid diethylamide]
Mu opioid receptor
  Ki: 1750 nM
Delta opioid receptor
  Ki: 174 nM

## c1ccc(CN2C3CCC2CC(C2c4ccccc4Oc4cc(-c5cccnc5)ccc42)C3)cc1 (centres unmarked) [Compound 11b, 8-Benzyl-3-(3-pyridin-3-yl-9H-xanthen-9-yl)-8-aza-bicyclo[3.2.1]octane]
Mu opioid receptor
  Ki: 955 nM
Delta opioid receptor
  Ki: 70.4 nM

## CCN(CC)C(=O)c1ccc2c(c1)Oc1c(-c3ccccc3)cccc1C2C1CC2CCC(C1)N2 (centres unmarked) [Compound 7d, 9-(8-Aza-bicyclo[3.2.1]oct-3-yl)-5-phenyl-9H-xanthene-3-carboxylic acid diethylamide]
Mu opioid receptor; [1]
  Ki: 8200 nM
Delta opioid receptor
  Ki: 91 nM

## c1ccc(CN2C3CCC2CC(C2c4ccccc4Oc4cc(-c5ccncc5)ccc42)C3)cc1 (centres unmarked) [Compound 23b, 8-Benzyl-3-(3-pyridin-4-yl-9H-xanthen-9-yl)-8-aza-bicyclo[3.2.1]octane]
Mu opioid receptor
  Ki: 890 nM
Delta opioid receptor
  Ki: 99.7 nM

## c1cncc(-c2ccc3c(c2)Oc2ccccc2C3C2CC3CCC(C2)N3Cc2ccoc2)c1 (centres unmarked) [Compound 4b, 8-Furan-3-ylmethyl-3-(3-pyridin-3-yl-9H-xanthen-9-yl)-8-aza-bicyclo[3.2.1]-octane]
Mu opioid receptor
  Ki: 556 nM
Delta opioid receptor
  Ki: 29.2 nM

## c1csc(CN2C3CCC2CC(C2c4ccccc4Oc4cc(-c5ccncc5)ccc42)C3)c1 (centres unmarked) [Compound 21b, 3-(3-Pyridin-4-yl-9H-xanthen-9-yl)-8-thiophen-2-ylmethyl-8-aza-bicyclo[3.2.1]octane]
Mu opioid receptor
  Ki: 930 nM
Delta opioid receptor
  Ki: 98 nM

## CC(=O)Nc1ccccc1-c1ccc2c(c1)Oc1ccccc1C2C1CC2CCC(C1)N2Cc1ccccn1 (centres unmarked) [Compound 15b, N-{2-[9-(8-Pyridin-2-ylmethyl-8-aza-bicyclo[3.2.1]oct-3-yl)-9H-xanthen-3-yl]-phenyl}-acetamide]
Mu opioid receptor
  Ki: 947 nM
Delta opioid receptor
  Ki: 102 nM

## CC(=O)Nc1ccccc1-c1ccc2c(c1)Oc1ccccc1C2C1CC2CCC(C1)N2Cc1ccoc1 (centres unmarked) [Compound 13b, N-{2-[9-(8-Furan-3-ylmethyl-8-aza-bicyclo[3.2.1]oct-3-yl)-9H-xanthen-3-yl]-phenyl}-acetamide]
Mu opioid receptor
  Ki: 1490 nM
Delta opioid receptor
  Ki: 38.7 nM

## c1ccc(CN2C3CCC2CC(C2c4ccccc4Oc4cc(-c5ccncc5)ccc42)C3)nc1 (centres unmarked) [Compound 22b, 8-Pyridin-2-ylmethyl-3-(3-pyridin-4-yl-9H-xanthen-9-yl)-8-aza-bicyclo[3.2.1]octane]
Mu opioid receptor
  Ki: 305 nM
Delta opioid receptor
  Ki: 71.6 nM

## C=CCN1C2CCC1CC(C1c3ccccc3Oc3cc(-c4ccccc4NC(C)=O)ccc31)C2 (centres unmarked) [Compound 18b, N-{2-[9-(8-Allyl-8-aza-bicyclo[3.2.1]oct-3-yl)-9H-xanthen-3-yl]-phenyl}-acetamide]
Mu opioid receptor; [1]
  Ki: 3200 nM
Delta opioid receptor; [2]
  Ki: 408 nM

## c1cncc(-c2ccc3c(c2)Oc2ccccc2C3C2CC3CCC(C2)N3Cc2cccs2)c1 (centres unmarked) [Compound 9b, 3-(3-Pyridin-3-yl-9H-xanthen-9-yl)-8-thiophen-2-ylmethyl-8-aza-bicyclo[3.2.1]octane]
Mu opioid receptor
  Ki: 1610 nM
Delta opioid receptor
  Ki: 182 nM

## c1ccc(CN2C3CCC2CC(C2c4ccccc4Oc4cc(-c5cccnc5)ccc42)C3)nc1 (centres unmarked) [Compound 10b, 8-Pyridin-2-ylmethyl-3-(3-pyridin-3-yl-9H-xanthen-9-yl)-8-aza-bicyclo[3.2.1]octane]
Mu opioid receptor
  Ki: 350 nM
Delta opioid receptor
  Ki: 211 nM

## CC(=O)Nc1ccccc1-c1ccc2c(c1)Oc1c(O)cccc1C2C1CC2CCC(C1)N2 (centres unmarked) [Compound 3l, N-{2-[9-(8-Aza-bicyclo[3.2.1]oct-3-yl)-5-hydroxy-9H-xanthen-3-yl]-phenyl}-acetamide]
Mu opioid receptor
  Ki: 20.4 nM
Delta opioid receptor
  Ki: 1.55 nM

## c1ccc2c(c1)Oc1cc(-c3ccncc3)ccc1C2C1CC2CCC(C1)N2Cc1ccoc1 (centres unmarked) [Compound 25b, 8-Furan-3-ylmethyl-3-(3-pyridin-4-yl-9H-xanthen-9-yl)-8-aza-bicyclo[3.2.1]octane]
Mu opioid receptor
  Ki: 775 nM
Delta opioid receptor
  Ki: 22.4 nM

## CC(=O)Nc1ccccc1-c1ccc2c(c1)Oc1ccccc1C2C1CC2CCC(C1)N2Cc1cccs1 (centres unmarked) [Compound 14b, N-{2-[9-(8-Thiophen-2-ylmethyl-8-aza-bicyclo[3.2.1]oct-3-yl)-9H-xanthen-3-yl]-phenyl}-acetamide]
Mu opioid receptor
  Ki: 2150 nM
Delta opioid receptor
  Ki: 78.1 nM

## c1ccc2c(c1)Oc1cc(-c3cnc4ccccc4c3)ccc1C2C1CC2CCC(C1)N2 (centres unmarked) [Compound 8b, 3-[9-(8-Aza-bicyclo[3.2.1]oct-3-yl)-9H-xanthen-3-yl]-quinoline]
Mu opioid receptor
  Ki: 27700 nM
Delta opioid receptor
  Ki: 4860 nM

## COc1cccc2c1Oc1cc(-c3ccccc3NC(C)=O)ccc1C2C1CC2CCC(C1)N2 (centres unmarked) [Compound 2l, N-{2-[9-(8-Aza-bicyclo[3.2.1]oct-3-yl)-5-methoxy-9H-xanthen-3-yl]-phenyl}-acetamide]
Mu opioid receptor; [1]
  Ki: 3700 nM
Delta opioid receptor; [2]
  Ki: 180 nM

## c1cncc(-c2ccc3c(c2)Oc2ccccc2C3C2CC3CCC(C2)N3)c1 (centres unmarked) [Compound 3b, 3-(3-Pyridin-3-yl-9H-xanthen-9-yl)-8-aza-bicyclo[3.2.1]octane]
Mu opioid receptor
  Ki: 4440 nM
Delta opioid receptor
  Ki: 3150 nM

## CCN(CC)C(=O)c1ccc2c(c1)Oc1c(C)cccc1C2C1CC2CCC(C1)N2 (centres unmarked) [Compound 6h, 9-(8-Aza-bicyclo[3.2.1]oct-3-yl)-5-methyl-9H-xanthene-3-carboxylic acid diethylamide]
Mu opioid receptor
  Ki: 4700 nM
Delta opioid receptor
  Ki: 73 nM

## CCN(CC)C(=O)c1ccc2c(c1)Oc1ccccc1C2C1CC2CCC(C1)N2Cc1ncc[nH]1 (centres unmarked) [Compound 16a, 9-[8-(1H-Imidazol-2-ylmethyl)-8-aza-bicyclo[3.2.1]oct-3-yl]-9H-xanthene-3-carboxylic acid diethylamide]
Mu opioid receptor
  Ki: 2000 nM
Delta opioid receptor
  Ki: 114 nM

## CCN(CC)C(=O)c1ccc2c(c1)Oc1ccccc1C2C1CC2CCC(C1)N2C (centres unmarked) [Compound 17a, 9-(8-Methyl-8-aza-bicyclo[3.2.1]oct-3-yl)-9H-xanthene-3-carboxylic acid diethylamide]
Mu opioid receptor
  Ki: > 10000 nM
Delta opioid receptor
  Ki: > 10000 nM
